Experimental data as given in patent publication US6506766B1 (Abbott Laboratories, priority 1998, dated 2003).
Where two headings read alike, the source gives them in different places.

Key:
[1] = biological target: T1, human progesterone receptor-A [PRA] isoform (Homo sapiens, UniProt P06401); test: Radioligand binding with human progesterone receptor cytosol ([3H]-progesterone competition); conditions: PRA cytosol expressed in insect SF21 cells, [3H]Prog ~0.8 nM, 4° C. overnight; Ki by Cheng-Prusoff, KL ~4.5 nM; read-out: Ki (nM) PR
T1 construct: host or cells: insect SF21 cells (baculovirus)
T1 sequence (P06401 1-769 isoform P06401-2): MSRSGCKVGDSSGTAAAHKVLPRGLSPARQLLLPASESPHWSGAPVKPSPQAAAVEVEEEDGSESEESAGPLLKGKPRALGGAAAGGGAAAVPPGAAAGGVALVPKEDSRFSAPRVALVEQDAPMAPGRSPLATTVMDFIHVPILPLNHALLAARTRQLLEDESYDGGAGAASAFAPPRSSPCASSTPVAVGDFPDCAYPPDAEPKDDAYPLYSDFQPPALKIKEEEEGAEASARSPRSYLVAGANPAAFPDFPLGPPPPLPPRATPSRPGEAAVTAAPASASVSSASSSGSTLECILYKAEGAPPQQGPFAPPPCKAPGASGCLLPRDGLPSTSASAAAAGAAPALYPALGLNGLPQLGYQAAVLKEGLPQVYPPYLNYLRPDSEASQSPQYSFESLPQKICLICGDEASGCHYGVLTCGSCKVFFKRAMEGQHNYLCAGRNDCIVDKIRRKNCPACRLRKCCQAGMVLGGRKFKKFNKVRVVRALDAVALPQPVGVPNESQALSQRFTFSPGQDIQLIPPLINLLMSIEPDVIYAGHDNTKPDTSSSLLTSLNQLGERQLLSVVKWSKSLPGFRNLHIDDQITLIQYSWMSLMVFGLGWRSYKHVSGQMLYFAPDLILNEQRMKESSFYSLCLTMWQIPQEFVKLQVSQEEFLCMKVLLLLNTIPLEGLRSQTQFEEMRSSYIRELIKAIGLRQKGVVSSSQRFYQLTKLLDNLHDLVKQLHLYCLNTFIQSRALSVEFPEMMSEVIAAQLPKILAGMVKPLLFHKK

[2] = biological target: T2, human glucocorticoid receptor-α [GRX] isoform (Homo sapiens, UniProt P04150); test: Radioligand binding with human glucocorticoid receptor cytosol ([3H]-dexamethasone competition)
T2 construct: host or cells: insect SF21 cells (baculovirus)
T2 sequence (P04150 1-777): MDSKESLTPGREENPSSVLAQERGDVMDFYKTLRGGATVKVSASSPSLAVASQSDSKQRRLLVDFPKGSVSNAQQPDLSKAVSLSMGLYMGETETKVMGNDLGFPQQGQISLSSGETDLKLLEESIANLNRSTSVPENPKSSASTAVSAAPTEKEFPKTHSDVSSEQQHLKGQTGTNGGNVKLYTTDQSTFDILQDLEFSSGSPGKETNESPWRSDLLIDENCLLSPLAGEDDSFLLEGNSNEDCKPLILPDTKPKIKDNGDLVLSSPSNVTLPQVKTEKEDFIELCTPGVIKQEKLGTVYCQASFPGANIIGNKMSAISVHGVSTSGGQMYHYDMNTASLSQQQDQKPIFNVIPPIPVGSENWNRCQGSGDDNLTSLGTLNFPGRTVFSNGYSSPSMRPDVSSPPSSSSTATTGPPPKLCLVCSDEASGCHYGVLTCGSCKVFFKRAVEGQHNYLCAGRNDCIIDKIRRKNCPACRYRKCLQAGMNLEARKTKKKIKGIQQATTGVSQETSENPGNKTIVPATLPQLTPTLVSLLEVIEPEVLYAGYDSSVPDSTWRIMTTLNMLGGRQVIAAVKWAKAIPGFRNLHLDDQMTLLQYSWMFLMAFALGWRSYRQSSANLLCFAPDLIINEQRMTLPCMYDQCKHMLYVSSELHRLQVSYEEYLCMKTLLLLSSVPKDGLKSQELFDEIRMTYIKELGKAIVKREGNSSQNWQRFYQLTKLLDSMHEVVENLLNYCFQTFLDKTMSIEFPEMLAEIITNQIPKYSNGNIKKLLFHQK

[3] = GRX cytosol expressed in insect SF21 cells, [3H]-Dex ~0.9 nM, 4° C. overnight, Ki by Cheng-Prusoff, KL ~[…], read-out: Ki (nM) GR

Ki [1] [nM] | Ki [2, 3] [nM] | Ki ([2]; Ki (nM) GR) [nM] | SMILES
≥ 10000 | 1.7 |  | COc1cccc2c1-c1ccc3c(c1C(c1cccc(CCO)c1)O2)C(C)=CC(C)(C)N3 (stereo not shown) [Example 314, 2,5-Dihydro-10-methoxy-5-(3-(2-hydroxyethyl)phenyl)-2,2,4-trimethyl-1H-[1]benzopyrano[3,4-f]quinoline]
≥ 10000 | 4.7 |  | COc1cccc2c1-c1ccc3c(c1C(c1cccc(OCc4ccccc4)c1)O2)C(C)=CC(C)(C)N3 (stereo not shown) [Example 87, 2,5-Dihydro-10-methoxy-2,2,4-trimethyl-5-[3-(phenylmethoxy)phenyl]-1H[1]benzopyrano[3,4-f]quinoline]
≥ 10000 | 11 |  | COc1cccc2c1-c1ccc3c(c1C(c1cccc(CCSC)c1)O2)C(C)=CC(C)(C)N3 (stereo not shown) [Example 316, 2,5-Dihydro-10-methoxy-5-(3-(2-methythioethyl)phenyl)-2,2,4-trimethyl-1H-[1]benzopyrano[3,4-f]quinoline]
≥ 10000 | 1.8 |  | COCC1=CC(C2Oc3cccc(OC)c3-c3ccc4c(c32)C(C)=CC(C)(C)N4)CCC1 (stereo not shown) [Example 160]
9160 | 10 |  | COc1cccc2c1-c1ccc3c(c1C(c1ccc(OCSC)cc1)O2)C(C)=CC(C)(C)N3 (stereo not shown) [Example 96, 2,5-Dihydro-10-methoxy-2,2,4-trimethyl-5-[[4-(methylthio)methoxy]phenyl]-1H-[1]benzopyrano[3,4-f]quinoline]
≥ 10000 | 21.7 |  | COc1cccc2c1-c1ccc3c(c1C(C1C=CC(=O)O1)O2)C(C)=CC(C)(C)N3 (stereo not shown) [Example 67, 5-(2,5-Dihydro-10-methoxy-2,2,4-trimethyl-1H-[1]benzopyrano[3,4-f]quinolin-5-yl)2(5H)-furanone]
≥ 10000 | 7.8 |  | COc1cccc2c1-c1ccc3c(c1C(c1cccc(OC(=O)N4CCOCC4)c1)O2)C(C)=CC(C)(C)N3 (stereo not shown) [Example 100, [(2,5-Dihydro-10-methoxy-2,2,4-trimethyl-1H-[1]benzopyrano[3,4-f]quinolin-5-yl)phenyl]1-morpholinecarboxylate]
≥ 10000 | 9.5 |  | C#Cc1cccc2c1-c1ccc3c(c1C(c1ccccc1)O2)C(C)=CC(C)(C)N3 (stereo not shown) [Example 334, 2,5-Dihydro-10-ethynyl-5-phenyl-2,2,4-trimethyl-1H-[1]benzopyrano[3,4-f]quinoline]
≥ 10000 |  | 10 | C=C1CCCCC1C1Oc2cccc(OC)c2-c2ccc3c(c21)C(C)=CC(C)(C)N3 (mixture of isomers) [Example 141, 2,5-Dihydro-10-methoxy-5-(1-methylene-2-cyclohexyl)-2,2,4-trimethyl-1H-[1]benzopyrano[3,4-f]quinoline]
7760 | 7.7 |  | COc1cccc2c1-c1ccc3c(c1C(c1ccc(C)c(C)c1)O2)C(C)=CC(C)(C)N3 (stereo not shown) [Example 29, 5-(3,4-Dimethylphenyl)-2,5-dihydro-10-methoxy-2,2,4-trimethy-1H-[1]benzopyrano[3,4-f]quinoline]
≥ 10000 | 45 |  | COc1cccc2c1-c1ccc3c(c1C(CCOC(=O)NCc1ccccc1)O2)C(C)=CC(C)(C)N3 (stereo not shown) [Example 200, 2,5-Dihydro-10-methoxy-5-(2-(N-benzylcarbonyloxy)ethyl)-2,2,4-trimethyl-1H-[1]benzopyrano[3,4-f]quinoline]

Further lines, the compound ahead of its results:

SMILES | Ki [1] [nM] | Ki [2, 3] [nM] | Ki ([2]; Ki (nM) GR) [nM]
CC1=CC(C)(C)Nc2ccc3c(c21)[C@@H]([C@H]1C=CCC1)Oc1ccc(O)c(Cl)c1-3 [Example 225] | 5010 | 155 | 
C=CCC1Oc2ccc(OCCCC(=O)OCC)c(OC)c2-c2ccc3c(c21)C(C)=CC(C)(C)N3 (racemic) [Example 433, (+/−)2,5-Dihydro-9-(4-ethoxy-4-oxo-butoxy)-10-methoxy-2,2,4-trimethyl-5-allyl-1H-[1]benzopyrano[3,4-f]quinoline] | 1410 | 30.2 | 
COc1c(O)ccc2c1-c1ccc3c(c1[C@H]([C@H]1C=C(C)CCC1)O2)C(C)=CC(C)(C)N3 (racemic) [Example 243, (+/−)(5S,3′R)2,5-Dihydro-9-hydroxy-10-methoxy-2,2,4-trimethyl-5-(1-methylcyclohexen-3-yl)-1H-[1]benzopyrano[3,4-f]quinoline] | 21.2 | 1.6 | 
COc1c(O)ccc2c1-c1ccc3c(c1/C(=C/c1cccc(F)c1)O2)C(C)=CC(C)(C)N3 [Example 374, Z-5-(3-Fluorobenzylidenyl)-10-methoxy-9-hydroxy-2,2,4-trimethyl-2,5-dihydro-1H-[1]benzopyrano[3,4-f]quinoline] | 222 | 9 | 
C=CCC1Oc2cc(F)cc(OC)c2-c2ccc3c(c21)C(C)=CC(C)(C)N3 (stereo not shown) [Example 233, 5-(3-Propenyl)-8-fluoro-10-methoxy-2,2,4-trimethyl-2,5-dihydro-1H-[1]benzopyrano[3,4-f]quinoline] | 350 | 2.5 | 
CC1=C[C@@H]([C@@H]2Oc3ccc(O)c(Cl)c3-c3ccc4c(c32)C(C)=CC(C)(C)N4)CCC1 [Example 417, (−)(5S,3′S)2,5-Dihydro-9-hydroxy-10-chloro-2,2,4-trimethyl-5-(1-methylcyclohexen-3-yl)-1H-[1]benzopyrano[3,4-f]quinoline] | 10.5 | 3 | 
C=CCC1Oc2ccc(OC(=O)CCCC(=O)N(CC)CC)c(OC)c2-c2ccc3c(c21)C(C)=CC(C)(C)N3 (stereo not shown) [Example 437] | 449 | 0.97 | 
COc1cccc2c1-c1ccc3c(c1C(=Cc1c(Cl)cccc1Cl)O2)C(C)=CC(C)(C)N3 [Example 125] | ≥ 10000 | 36.6 | 
C=CCC1Oc2ccc(Br)c(OC)c2-c2ccc3c(c21)C(C)=CC(C)(C)N3 (stereo not shown) [Example 300, 10-Methoxy-9-bromo-5-(3-propenyl)-2,2,4-trimethyl-1H-2,5-dihydro-[1]benzopyrano[3,4-f]quinoline] | 34.4 | 5.3 | 
C=CCCC1Oc2ccc(O)c(OC)c2-c2ccc3c(c21)C(C)=CC(C)(C)N3 (stereo not shown) [Example 261, 2,5-Dihydro-9-hydroxy-10-methoxy-2,2,4-trimethyl-5-(3-butenyl)-1H-[1]benzopyrano[3,4-f]quinoline] | 161 | 0.75 | 
COc1cccc2c1-c1ccc3c(c1C(=Cc1cc(C)no1)O2)C(C)=CC(C)(C)N3 [Example 350, 10-Methoxy-5-(3-methylisoxazol-5-yl)methyidene-2,5-dihydro-5-phenyl-2,2,4-trimethyl-1H-[1]benzopyrano[3,4-f]quinoline] | ≥ 10000 | 6.22 | 
COc1cccc2c1-c1ccc3c(c1C(C1C=CCC(C)(C)C1)O2)C(C)=CC(C)(C)N3 (mixture of isomers) [Example 133] | 4870 | 3.6 | 
COc1c(O)ccc2c1-c1ccc3c(c1/C(=C/c1cc(F)ccc1F)O2)C(C)=CC(C)(C)N3 [Example 366, Z-5-(2,5-Difluorobenzylidenyl)-9-hydroxy-10-methoxy-2,2,4-trimethyl-1H-2,5-dihydro-[1]benzopyrano[3,4-f]quinoline] | 83.9 | 2.1 | 
COc1ccc(Br)c2c1-c1ccc3c(c1C(C1C=C(C)CCC1)O2)C(C)=CC(C)(C)N3 (stereo not shown) [Example 299] | 2900 | 5.4 | 
CC1=CC(C)(C)Nc2ccc3c(c21)C(c1cc(C)cc(C)c1)Oc1ccc(O)c(Cl)c1-3 (stereo not shown) [Example 219, 10-Chloro-9-hydroxy-5-(3,5-dimethylphenyl)-2,2,4-trimethyl-1H-2,5-dihydro-[1]benzopyrano[3,4-f]quinoline] | 178 | 2.4 | 
